For the assay, the target named is T1, Complement component 3a receptor 1, isoform CRA_a (Homo sapiens, UniProt A8K2H7).
T1 sequence (A8K2H7 whole entry): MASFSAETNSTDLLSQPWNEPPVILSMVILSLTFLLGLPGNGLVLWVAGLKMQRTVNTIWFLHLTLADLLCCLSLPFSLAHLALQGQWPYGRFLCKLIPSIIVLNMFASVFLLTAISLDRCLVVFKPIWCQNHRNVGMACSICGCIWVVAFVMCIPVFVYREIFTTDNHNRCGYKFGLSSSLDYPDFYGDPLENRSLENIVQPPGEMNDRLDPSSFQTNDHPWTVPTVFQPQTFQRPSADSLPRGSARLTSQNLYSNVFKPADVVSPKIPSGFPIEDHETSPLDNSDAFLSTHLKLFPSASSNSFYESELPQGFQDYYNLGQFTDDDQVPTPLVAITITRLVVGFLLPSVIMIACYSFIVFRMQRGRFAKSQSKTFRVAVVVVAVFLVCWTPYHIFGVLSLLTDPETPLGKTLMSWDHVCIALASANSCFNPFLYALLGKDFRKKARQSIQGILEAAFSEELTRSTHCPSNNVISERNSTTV
Briefly: Agonist activity at human C3AR1 expressed in […] by FLIPR assay. Format: functional, cell-based.
As for `CCCCc1nc2cccc(CCCl)c2n1Cc1ccc(-c2ccccc2C(=O)O)cc1`, a half-maximal effect (EC50) was put at 310 nM. This counts as sub-micromolar. In the case of `CCCCc1cn(Cc2ccc(-c3ccccc3C(=O)O)cc2)c2cccc(SC)c2c1=O` it was 530 nM.

Molecule `CCCc1nc(Br)c(S(C)(=O)=O)n1Cc1ccc(-c2ccccc2-c2nn[nH]n2)cc1` gave an EC50 of 2 nM. In the case of `CCCCn1c(Cc2ccccc2)nc2cc(/C(=C/C(=O)O)c3ccccc3)ccc21` it was 2.7 nM.

What is called EC50 is the midpoint of the concentration-response curve. A higher EC50 goes with lower potency in that assay.
